Drawing on patent US20260224584A1 (priority 2023, published 2026), this text covers IC50 for five molecules.

Structures can show the parent of a compound that is named as a salt.

This assay relates to Human WB (90%) CD69. Put plainly: Human WB (90%) CD69. It counts as cell-based. The note with it: read-out: Human WB (90%) CD69 IC50 (nM); human whole blood (90%), CD69 readout.
Broadly, the IC50 is the midpoint of a concentration-inhibition curve. Regarding `COc1ccc(-c2nc3c(N4CCN(C5COC5)CC4)cc(-c4ccc(N5CCN(C(C)C)CC5)cc4)cc3n2C)cc1OC` [Example 59, 2-(3,4-dimethoxyphenyl)-6-(4-(4-isopropylpiperazin-1-yl)phenyl)-1-methyl-4-(4-(oxetan-3-yl)piperazin-1-yl)-1H-benzo[d]imidazole], the half-inhibitory concentration (IC50) is 651 nM.
With `Cc1nc2c(N3CCC(CNC4COC4)CC3)cc(-c3ccc(N4CCN(C(C)C)CC4)cc3)cc2n1C` [Example 60, N-((1-(6-(4-(4-isopropylpiperazin-1-yl)phenyl)-1,2-dimethyl-1H-benzo[d]imidazol-4-yl)piperidin-4-yl)methyl)oxetan-3-amine] the figure was 535 nM.
The figure for `Cc1nc2c(N3CCC(CNC4CCOCC4)CC3)cc(-c3ccc(N4CCN(C(C)C)CC4)cc3)cc2n1C` [Example 61, N-((1-(6-(4-(4-isopropylpiperazin-1-yl)phenyl)-1,2-dimethyl-1H-benzo[d]imidazol-4-yl)piperidin-4-yl)methyl)tetrahydro-2H-pyran-4-amine] is 156 nM; for `CC(C)N1CCN(c2ccc(-c3cc(NC4CCN(C5COC5)CC4)c4nc(-c5ccc(S(C)(=O)=O)cc5)n(C)c4c3)cc2)CC1` [Example 62, 6-(4-(4-isopropylpiperazin-1-yl)phenyl)-1-methyl-2-(4-(methylsulfonyl)phenyl)-N-(1-(oxetan-3-yl)piperidin-4-yl)-1H-benzo[d]imidazol-4-amine, 2 TFA] it is 111 nM; for `CC(C)N1CCN(c2ccc(-c3cc(NCCN4CCOCC4)c4nc(-c5ccc(S(C)(=O)=O)cc5)n(C)c4c3)cc2)CC1` [Example 63, 6-(4-(4-isopropylpiperazin-1-yl)phenyl)-1-methyl-2-(4-(methylsulfonyl)phenyl)-N-(2-morpholinoethyl)-1H-benzo[d]imidazol-4-amine] it is 121 nM.
